Experimental data published in US9315475B2 (MERCK SHARP & DOHME CORP., priority 2011, dated 2016).

What was measured:
wildtype HIV-1 protease = molecular target: T1, wildtype HIV-1 protease (Human immunodeficiency virus type 1 group M subtype B, UniProt P04585); assay: Assay for inhibition of microbial expressed HIV protease (Pepcleav); assay type: biochemical; settings: wild type HIV-1 protease expressed in E. coli, peptide substrate, pH 5.5; mean of at least two independent experiments; read-out: Pepcleav
T1 construct: the wildtype HIV-1 protease (which was expressed in Escherichia coli); made in house; host or cells: Escherichia coli
In short: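 Cleavage of 400 μM peptide substrate Val-Ser-Gln-Asn-(βnaphthyl)Ala-Pro-Ile-Val by 20 pM wild-type enzyme (E. coli-expressed) ran 1 h at 30 °C after 30 min inhibitor preincubation, pH 5.5 acetate buffer. Inhibition derived from product peak area by C18 LC with multiple-reaction-monitoring MS after formic acid quench.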

HIV-1 (H9IIIB strain) = assay: Antiviral acute infection assay in cell culture (Spread); assay type: cell-based; settings: Human immunodeficiency virus 1, T-lymphoid, HIV-1 H9IIIB infection of MT-4 human T-lymphoid cells in 10% FBS; mean of at least two independent experiments
Source text: Antiviral Assays in Cell Culture (“Spread”)
Acute Infection Assay (“Spread”) data were generated using HIV-1 (H9IIIB strain) infection of MT-4 human T-lymphoid cells in 10% FBS, and according to the methods disclosed by J. P. Vacca et al, “L-735,524: An orally bioavailable human immunodeficiency virus type 1 protease inhibitor,” Proc. Natl. Acad. Sci. USA, Vol. 91, pp. 4096-4100 (April 1994).

| Compound | IC50 (wildtype HIV-1 protease) [µM] | EC50 (HIV-1 (H9IIIB strain)) [µM] |
| --- | --- | --- |
| O=C(C[C@@H](c1ccc(F)cc1)c1cc(F)cc(F)c1)Nc1cccc(F)c1CC[C@@H]1CN[C@H](COC(=O)NCC(F)(F)F)CO1 [Example 147, {(3S,6R)-6-[2-(2-{[(3S)-3-(3,5-difluorophenyl)-3-(4-fluorophenyl)propanoyl]amino}-6-fluorophenyl)ethyl]morpholin-3-yl} methyl (2,2,2-trifluoroethyl)carbamate] | 0.0049 | 0.12 |
| O=C(C[C@@H](c1ccc(F)cc1)C1CCCCC1)Nc1cncc(F)c1CC[C@@H]1CN[C@H](COC(=O)NCC(F)(F)F)CO1 [Example 148, {(3S,6R)-6-[2-(3-{[(3R)-3-cyclohexyl-3-(4-fluorophenyl)propanoyl]amino}-5-fluoropyridin-4-yl)ethyl]morpholin-3-yl}methyl (2,2,2-trifluoroethyl)carbamate] | 0.022 | 0.15 |
| O=C(C[C@@H](c1ccc(F)cc1)c1cc(F)ccc1F)Nc1cncc(F)c1CC[C@@H]1CN[C@H](COC(=O)NCC(F)(F)F)CO1 [Example 149, {(3S,6R)-6-[2-(3-{[(3S)-3-(2,5-difluorophenyl)-3-(4-fluorophenyl)propanoyl]amino}-5-fluoropyridin-4-yl)ethyl]morpholin-3-yl}methyl (2,2,2-trifluoroethyl)carbamate] | 0.0014 | 0.014 |
| O=C(C[C@H](c1ccccc1)c1ccc(Cl)cc1)Nc1cccc(F)c1CC[C@@H]1CN[C@H](COC(=O)NCC(F)(F)F)CO1 [Example 150, {(3S,6R)-6-[2-(2-{[(3R)-3-(4-chlorophenyl)-3-phenylpropanoyl]amino}-6-fluorophenyl)ethyl]morpholin-3-yl}methyl (2,2,2-trifluoroethyl) carbamate] | 0.011 | 0.13 |
| COc1ccc([C@H](CC(=O)Nc2cccc(F)c2CC[C@@H]2CN[C@H](COC(=O)NCC(F)(F)F)CO2)c2ccc(F)cc2)cc1 [Example 151, {(3S,6R)-6-[2-(2-fluoro-6-{[(3S)-3-(4-fluorophenyl)-3-(4-methoxy-phenyl)propanoyl]amino}phenyl)ethyl]morpholin-3-yl}methyl (2,2,2-trifluoroethyl)carbamate] | 0.1 | 0.29 |
| O=C(C[C@H](c1ccc(F)cc1)c1ccc(Cl)cc1)Nc1cccc(F)c1CC[C@@H]1CN[C@H](COC(=O)NCC(F)(F)F)CO1 [Example 154, {(3S,6R)-6-[2-(2-{[(3R)-3-(4-chlorophenyl)-3-(4-fluorophenyl)propanoyl]amino}-6-fluoro-phenyl)ethyl]morpholin-3-yl}methyl (2,2,2-trifluoroethyl)carbamate] | 0.0051 | 0.15 |
| O=C(C[C@H](c1ccc(F)cc1)c1ccc(Br)cc1)Nc1cccc(F)c1CC[C@@H]1CN[C@H](COC(=O)NCC(F)(F)F)CO1 [Example 155, {(3S,6R)-6-[2-(2-{[(3R)-3-(4-bromophenyl)-3-(4-fluorophenyl)propanoyl]amino}-6-fluoro-phenyl)ethyl]morpholin-3-yl}methyl (2,2,2-trifluoroethyl)carbamate] | 0.0061 | 0.058 |
| NC(=O)OC[C@@H]1CO[C@H](CCc2c(F)cccc2NC(=O)C[C@@H](c2ccc(F)cc2)c2ccc(F)cc2F)CN1 [Example 156, {(3S,6R)-6-[2-(2-{[(3S)-3-(2,4-difluorophenyl)-3-(4-fluorophenyl)propanoyl]amino}-6-fluoro-phenyl)ethyl]morpholin-3-yl}methyl carbamate] | 0.01 | 0.026 |
| NC(=O)OC[C@@H]1CO[C@H](CCc2c(F)cccc2NC(=O)C[C@@H](c2ccc(F)cc2)c2ccncc2F)CN1 [Example 157, {(3S,6R)-6-[2-(2-fluoro-6-{[(3S)-3-(4-fluorophenyl)-3-(3-fluoropyridin-4-yl)propanoyl]amino}phenyl)ethyl]morpholin-3-yl}methyl carbamate] | 0.0096 | 0.018 |
| O=C(C[C@H](c1ccc(F)cc1)c1cncc(F)c1)Nc1cccc(F)c1CC[C@@H]1CN[C@H](COC(=O)NCC(F)(F)F)CO1 [Example 161, {(3S,6R)-6-[2-(2-fluoro-6-{[(3R)-3-(4-fluorophenyl)-3-(5-fluoropyridin-3-yl)propanoyl]amino}phenyl)ethyl]morpholin-3-yl}methyl (2,2,2-trifluoroethyl)carbamate] | 0.012 | 0.07 |
| CS(=O)(=O)c1cccc([C@@H](CC(=O)Nc2cccc(F)c2CC[C@@H]2CN[C@H](COC(=O)NCC(F)(F)F)CO2)c2ccc(Cl)cc2)c1 [Example 164, [(3S,6R)-6-{2-[2-({(3S)-3-(4-chlorophenyl)-3-[3-(methylsulfonyl)phenyl]propanoyl}amino)-6-fluorophenyl]ethyl}morpholin-3-yl] methyl (2,2,2-trifluoroethyl)carbamate] | 0.0034 | 0.063 |
| CCC(CO)NC(=O)OC[C@@H]1CO[C@H](CCc2c(F)cncc2NC(=O)CC(c2ccc(F)cc2)c2ccc(F)cc2)CN1 (stereo partly drawn) [Example 165, {(3S,6R)-6-[2-(3-{[3,3-bis(4-fluorophenyl)propanoyl]amino}-5-fluoropyridin-4-yl)ethyl]morpholin-3-yl}methyl [1-(hydroxy-methyl)propyl]carbamate] | 0.0045 | 0.04 |
| CC1(CNC(=O)OC[C@@H]2CO[C@H](CCc3c(F)cncc3NC(=O)CC(c3ccc(F)cc3)c3ccc(F)cc3)CN2)CCCO1 (stereo partly drawn) [Example 166, {(3S,6R)-6-[2-(3-{[3,3-bis(4-fluoro-phenyl)propanoyl]amino}-5-fluoropyridin-4-yl)ethyl]morpholin-3-yl]methyl [(2-methyltetrahydrofuran-2-yl)methyl]carbamate] | 0.014 | 0.037 |
| O=C(CC(c1ccc(F)cc1)c1ccc(F)cc1)Nc1cncc(F)c1CC[C@@H]1CN[C@H](COC(=O)NC(CO)C(F)(F)F)CO1 (stereo partly drawn) [Example 167, {(3S,6R)-6-[2-(3-{[3,3-bis(4-fluoro-phenyl)propanoyl]amino}-5-fluoropyridin-4-yl)ethyl]morpholin-3-yl}methyl [2,2,2-trifluoro-1-(hydroxymethyl)ethyl] carbamate] | 0.0015 | 1.25 |
| C[C@H](Oc1c(F)cccc1NC(=O)[C@@H](N)C(c1ccc(F)cc1)c1ccc(F)cc1)[C@@H]1CN[C@H](COC(=O)NCC(F)(F)F)CO1 [Example 193, 4-fluoro-β-(4-fluorophenyl)-N-(3-fluoro-2-{(1S)-1-[(2S,5S)-5-({[(2,2,2-trifluoroethyl)carbamoyl]oxy}methyl)morpholin-2-yl]ethoxy}phenyl)-L-phenylalaninamide] | 0.12 | 1.4 |
| N[C@H](C(=O)Nc1cccc(F)c1CC[C@@H]1CN[C@H](COC(=O)NCc2cccnc2)CO1)C(c1ccc(F)cc1)c1ccc(F)cc1 [Example 201, 4-fluoro-β-(4-fluorophenyl)-N-(3-fluoro-2-{2-[(2R,5S)-5-({[(pyridin-3-ylmethyl)carbamoyl]oxy}methyl)morpholin-2-yl]ethyl}phenyl)-L-phenylalaninamide] | 0.028 | 0.08 |
| CN[C@H](C(=O)Nc1cncc(F)c1CC[C@@H]1CN[C@H](COC(=O)NCC(F)(F)F)CO1)C(c1ccc(F)cc1)c1ccc(F)cc1 [Example 202, 4-fluoro-β-(4-fluorophenyl)-N-(5-fluoro-4-{2-[(2R,5S)-5-({[(2,2,2-trifluoroethyl)carbamoyl]oxy}methyl)morpholin-2-yl]ethyl}pyridin-3-yl)-Nα-methyl-L-phenylalaninamide] | 0.028 | 0.065 |
| CNC(=O)OC[C@@H]1CO[C@H](CCc2c(F)cncc2NC(=O)[C@@H](N)C(c2ccc(F)cc2)c2ccc(F)cc2)CN1 [Example 205, 4-fluoro-N-(5-fluoro-4-{2-[(2R,5S)-5-{[(methylcarbamoyl)oxy]methyl}morpholin-2-yl]ethyl}pyridin-3-yl)-β-(4-fluorophenyl)-L-phenylalaninamide] | 0.024 | 0.058 |
| NC(=O)OC[C@@H]1CO[C@H](COc2c(F)cncc2NC(=O)[C@@H](N)C(c2ccc(F)cc2)c2ccc(F)cc2)CN1 [Example 206, N-[4-({(2S,5S)-5-[(carbamoyloxy)methyl]morpholin-2-yl}methoxy)-5-fluoropyridin-3-yl]-4-fluoro-β-(4-fluorophenyl)-L-phenylalaninamide] | 0.021 | 0.12 |
| CCNC(=O)OC[C@@H]1CO[C@H](CCc2c(F)cncc2NC(=O)[C@@H](N)C(c2ccc(F)cc2)c2ccc(F)cc2)CN1 [Example 207, N-(4-{2-[(2R,5S)-5-{[(ethylcarbamoyl)oxy]methyl}morpholin-2-yl]ethyl}-5-fluoropyridin-3-yl)-4-fluoro-β-(4-fluorophenyl)-L-phenylalaninamide] | 0.02 | 0.11 |
| N[C@H](C(=O)Nc1cncc(F)c1CC[C@@H]1CN[C@H](COC(=O)NCC2CCOCC2)CO1)C(c1ccc(F)cc1)c1ccc(F)cc1 [Example 208, 4-fluoro-β-(4-fluorophenyl)-N-(5-fluoro-4-{2-[(2R,5S)-5-({[(tetrahydro-2H-pyran-4-ylmethyl)carbamoyl]oxy}methyl)morpholin-2-yl]ethyl}pyridin-3-yl)-L-phenylalaninamide] | 0.018 | 0.1 |
